Data as given in paper PMC9487510, “A Novel Oral GyrB/ParE Dual Binding Inhibitor Effective against Multidrug-Resistant Neisseria gonorrhoeae and Other High-Threat Pathogens” (Antimicrobial Agents and Chemotherapy, 2022).
≈ marks a conversion by molar mass, not a printed value. Where “and” joins values, the source holds several entries; their conditions need not be identical. Equal entries are not always repeated. Where two headings read alike, the source gives them in different places.

Tests used:
[1] = system: N. gonorrhoeae; conditions: QC strain ATCC 49926; cited from earlier work
[2] = system: S. aureus; conditions: organism not named in the sentence (context MRSA/S. aureus); cited from earlier work
[3] = system: E. coli; parameters: method as in PMID 28483959, PMID 31315953; conditions: cited from earlier work
[4] = Mouse pharmacokinetics of JSF-2659; format: in vivo; conditions: oral administration in mice; data not shown
[5] = system: N. gonorrhoeae (ATCC 700825); test: Intravaginal infection model, ovariectomized BALB/c mice, strain ATCC 700825; format: in vivo, mouse (BALB/c); conditions: for killing effect relative to the baseline group: 26, 76 and 170 h after infection; for killing effect (bacterial counts in vaginal lavage): 26 h postinfection
[6] = system: S. aureus VRSA, VRS-2; test: Neutropenic murine thigh infection model; format: in vivo, mouse (ICR); conditions: 26 h after infection
[7] = system: C. difficile BAA-1805; test: Hamster C. difficile colitis model; format: in vivo, Golden Syrian hamster
[8] = Kinetic aqueous solubility; format: physicochemical
[9] = system: Neisseria gonorrhoeae strain H041; test: Estradiol-treated mouse model of cervico-vaginal infection, strain H041; format: in vivo, mouse (BALB/c); conditions: for percentage of mice colonized over 8 culture days after treatment: vs vehicle
[10] = Liver microsome stability, mouse; format: in vitro ADME; conditions: male, CD-1, mouse, liver microsomes, pH 7.4
Method: Liver microsome stability assays were performed by BioDuro Inc. Human and mouse (CD-1 male) liver microsomes were used. […] Next, 50 μL of reaction buffer was added to solution and mixed via pipetting up and down 6 times. At each time point of 0, 30, and 60 min, an aliquot of 20 μL was removed from each tube. Liver microsomes (LM) working solution was prepared in 0.05 M phosphate reaction buffer (pH = 7.4) to a final concentration of 1.27 mg/mL. NADPH solution was prepared in 0.05 M phosphate buffer to afford a 5 mM buffer solution. […] After vortexing and incubating for 5 min (37°C), 50 μL of NADPH solution was added and mixed via pipetting. At each time point of 0, 5, 15, 30, and 60 min, an aliquot of 20 μL was removed from each tube. Next, 250 μL of quenching solution was aliquoted to quench the reaction, which was then vortexed for 1 min and placed on ice for 40 min. After centrifugation at 4,000 × g for 15 min, 100 μL of supernatant was transferred using a multichannel pipette to 0.65-mL tubes. Samples were diluted with MeOH: H2O (1:1) as necessary. Samples were analyzed by high-pressure liquid chromatography coupled to tandem mass spectrometry (LC/MS/MS) performed on a Sciex Applied Biosystems Qtrap 4000 triple-quadrupole mass spectrometer coupled to a Shimadzu HPLC system to quantify the remaining compound. Data were processed using Analyst software (version 1.4.2; Applied Biosystems Sciex). […] Metabolite identification on the microsomal extracts was performed using a Q-Exactive HRMS coupled with an Ultimate 3000 HPLC system and a Kinetix C18 2.1 × 50-mm 2.6-μm HPLC column.

[11] = system: C. difficile; test: MIC, toxigenic C. difficile panel (CLSI); format: cell-based, Clostridioides difficile; conditions: for MIC: Clostridioides difficile
[12] = system: MRSA; test: MIC, in vitro susceptibility testing (CLSI); format: cell-based, Staphylococcus aureus
[13] = system: VRSA; conditions: cited from earlier work
[14] = system: VISA; test: MIC, in vitro susceptibility testing (CLSI); format: cell-based, Staphylococcus aureus
[15] = system: MRSE; test: MIC, in vitro susceptibility testing (CLSI); format: cell-based, Staphylococcus epidermidis

For O=c1ccc2ncc(=O)n3c2n1C[C@H]3CN1CCC(NCc2cc3c(cn2)OCCC3)CC1 [Gepotidacin], the “modal MIC” value [1] is listed as 0.5 µg/mL, the MIC90 [2] is listed as 0.5 µg/mL (≈ 1.11 µM) and the MIC [3] is listed as 4 µg/mL (≈ 8.92 µM).
For CNc1cc(F)cc2c1[nH]c1nc(Oc3cnc(C)nc3)nc(N3CCC4(CC3)CO[C@@H](COP(=O)(O)O)C4)c12 [JSF-2659], the “conversion by host phosphatases to JSF-2414” value [4] was greater than 99%, the “killing effect relative to the baseline group” value ([5]; IM 75 mg/kg QD) was greater than 3 log10 and the “killing effect relative to the baseline group” value ([5]; IM 250 mg/kg QD) was greater than 3 log10. The “killing effect relative to the baseline group” value ([5]; PO 75 mg/kg TID) was greater than 3 log10, the “killing effect relative to the baseline group” value ([5]; PO 250 mg/kg QD) was greater than 3 log10 and the “killing effect relative to the baseline group” value ([5]; PO 250 mg/kg TID) was greater than 3 log10. The “killing effect (bacterial counts in vaginal lavage)” value ([5]; IM 75 mg/kg QD, relative to control) was 3.51 log10, the “killing effect (bacterial counts in vaginal lavage)” value ([5]; IM 250 mg/kg QD, relative to control) was 3.39 log10 and the “killing effect (bacterial counts in vaginal lavage)” value ([5]; PO 75 mg/kg QD, relative to baseline group) was 1 log10. For the same compound, the “killing effect (bacterial counts in vaginal lavage)” value ([5]; PO 75 mg/kg TID, relative to control) was 3.51 log10, the “killing effect (bacterial counts in vaginal lavage)” value ([5]; PO 250 mg/kg QD, relative to control) was 3.51 log10 and the “killing effect (bacterial counts in vaginal lavage)” value ([5]; PO 250 mg/kg TID, relative to control) was 3.51 log10. For the same compound, the “reduction of burden to the limit of detection” value ([5]; dose-dependent oral administration) was ~ 4.5 log10, the “bacterial count reduction in thigh relative to vehicle control” value ([6]; PO 100 mg/kg QD) was 0.95 log10 and the “bacterial count reduction in thigh relative to vehicle control” value ([6]; PO 100 mg/kg TID) was 4.84 log10. The “bacterial count reduction in thigh relative to vehicle control” value ([6]; PO 250 mg/kg QD) was 4.42 log10, the “bacterial count reduction in thigh relative to vehicle control” value ([6]; PO 250 mg/kg TID, 250 mg/kg) was 6.26 log10 and > 6.2 log10 and the “survival, 14-day observation” value ([7]; 20 mg/kg PO BID for 5 days) was 100%. The “survival, 14-day observation” value ([7]; 100 mg/kg PO BID for 5 days) was 100%, the “survival, 14-day observation” value ([7]; 250 mg/kg PO BID for 5 days) was 100% and the “body weight change during the 14-day observation period” value ([7]; 20, 100 and 250 mg/kg PO BID, relative to the positive controls) was “No significant loss of body weight”. The “increase of solubility over the parent drug candidate” value ([8]; JSF-2659 vs JSF-2414) was 764 fold, the solubility kinetic ([8]; aqueous medium (not further specified)) was 440 µM (≈ 252 µg/mL) and the “percentage of mice colonized over 8 culture days after treatment” value (from here on “percentage of mice colonized”) ([9]; 75 mg/kg TID (q 6 h) PO) was “significant reduction in the percentage of mice colonized”. For the same compound, the “percentage of mice colonized” value ([9]; 250 mg/kg QD PO) was “significant reduction in the percentage of mice colonized”, the “percentage of mice colonized” value ([9]; 250 mg/kg TID (q 6 h) PO) was “significant reduction in the percentage of mice colonized” and the “average CFU/mL recovered after 48 h of treatment” value ([9]; 250 mg/kg TID PO, vs vehicle (P = 0.058)) was “significantly reduced compared to the vehicle control”. The “average CFU per mL of vaginal swab suspension over time” value ([9]; 250 mg/kg TID PO, P = 0.004) was “significantly different than the vehicle control group”, the microsomal CLint at 1 μM ([10]; read-out: MLM Clint) was 0.5 µL/min/mg and the half-life at 1 μM ([10]; read-out: MLM t1/2) was 23.1 h.
CN[C@H](CC(C)C)C(=O)N[C@H]1C(=O)N[C@@H](CC(N)=O)C(=O)N[C@H]2C(=O)N[C@H]3C(=O)N[C@H](C(=O)N[C@H](C(=O)O)c4cc(O)cc(O)c4-c4cc3ccc4O)[C@H](O)c3ccc(c(Cl)c3)Oc3cc2cc(c3O[C@@H]2O[C@H](CO)[C@@H](O)[C@H](O)[C@H]2O[C@H]2C[C@](C)(N)[C@H](O)[C@H](C)O2)Oc2ccc(cc2Cl)[C@H]1O [Van, vancomycin] gave an MIC range [11] of 0.5 to 1 µg/mL, an MIC [11] of 1 µg/mL (≈ 0.69 µM) and an MIC ([11]; BAA1805) of 0.5 µg/mL (≈ 0.345 µM). The MIC ([11]; BAA1808) was 0.5 µg/mL (≈ 0.345 µM), the MIC ([11]; BAA1874) was 0.5 µg/mL (≈ 0.345 µM) and the MIC ([11]; BAA1875) was 0.5 µg/mL (≈ 0.345 µM). For the same compound, the “bacterial count reduction in thigh” value ([6]; SC 100 mg/kg TID) was 2.09 log10, the survival ([7]; 20 mg/kg PO BID for 5 days) was 100% and the MIC [12] was 1.0 µg/mL (≈ 0.69 µM). For the same compound, the MIC range [12] was 0.5 to 1 µg/mL, the MIC ([12]; Staphylococcus aureus, MRSA) was 0.5 µg/mL (≈ 0.345 µM) and the MIC [13] was greater than 64 µg/mL. The MIC range [14] was 3.125 to 12.5 µg/mL, the MIC range [15] was 0.5 to 1 µg/mL and the MIC ([15]; Staphylococcus epidermidis, MRSE) was 0.5 µg/mL (≈ 0.345 µM).
